The results in this text go back to ChEMBL document CHEMBL1201862, “PubChem BioAssay data set” (2004).

Structures are written as SMILES.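 How tested: cells in 96-well plates exposed to compound for 48 hours at five concentrations. At the GI50, growth is halved.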 Activity calls are given as the source filed them. Rule as the data show it: active = GI50 up to about 1.1 µM and inactive = higher. A value given as a limit tells only on which side of the number the result lay.

Test systems include COLO 205; HCT-116; HL-60; HOP-62; K562; KM12; LXFL 529; OVCAR-4; RXF 393; SF-539; SK-MEL-2; SK-MEL-5; SK-OV-3; SN12C; SNB-19; U-251; UACC-257.
Holding throughout (test): NCI tumour cell line growth inhibition, 48 h

On to `CCOC(=O)N[C@H]1CCc2cc(O)c(OC)c(OC)c2-c2ccc(SC)c(=O)cc21`, for which the GI50 is 0.141 µM (active) in the test on COLO 205; < 0.0138 µM (active) in the test with HCT-116; < 0.01 µM (active) in the test with HL-60; 0.0386 µM (active) with HOP-62; 0.0136 µM (active) in the test with K562; 0.0154 µM (active) with KM12. The GI50 in the test on LXFL 529 was < 0.0122 µM (active); in the test on OVCAR-4 it was 8 µM (inactive); in the test with RXF 393, < 0.01 µM (active); in the test with SF-539 it was 0.0137 µM (active); in the test on SK-MEL-2 it was < 0.0149 µM (active); in the test with SK-MEL-5, 0.0127 µM (active). Moreover, the GI50 in the test on SK-OV-3 is 0.24 µM (active); with SN12C, 0.046 µM (active); with SNB-19, 0.0282 µM (active); with U-251, < 0.0162 µM (active); in the test with UACC-257 it was < 0.0491 µM (active).

`COC(=O)C(C(=O)C(=O)Nc1nc2ccc(OC)cc2s1)c1cnc2ccccc2n1` (stereo not given): the GI50 in the test with COLO 205, with HCT-116, with HOP-62, with K562, in the test on KM12 and with LXFL 529 was > 100 µM (inactive) in each case. Moreover, the GI50 in the test on OVCAR-4, with RXF 393, in the test on SF-539, with SK-MEL-5, in the test with SK-OV-3 and in the test on SN12C was > 100 µM (inactive) each time. Also, the GI50 with SNB-19, with U-251 and in the test on UACC-257 was > 100 µM (inactive) each time.

As for `CN1CCN(CCSC2Cc3cc(Cl)ccc3Sc3ccccc32)CC1` (stereo not given), the GI50 was 1.74 µM (inactive) in the test on COLO 205; 5.69 µM (inactive) with HCT-116; 1.73 µM (inactive) in the test with HL-60; 12.7 µM (inactive) with HOP-62; 1.71 µM (inactive) with K562; 3.46 µM (inactive) in the test on KM12. The GI50 with LXFL 529 was 2.89 µM (inactive); in the test on OVCAR-4, 6.81 µM (inactive); in the test with RXF 393 it was 4.19 µM (inactive); in the test on SF-539, 3.15 µM (inactive); in the test on SK-MEL-2 it was 1.86 µM (inactive); in the test with SK-MEL-5, 3.26 µM (inactive). Besides, the GI50 in the test with SK-OV-3 was 16.7 µM (inactive); in the test with SN12C, 9.12 µM (inactive); in the test with SNB-19, 13.9 µM (inactive); in the test with U-251, 5.4 µM (inactive); with UACC-257, 1.9 µM (inactive).

Regarding `O=C(Nc1nc2ncn(CCNCCn3cnc4nc(NC(=O)c5ccccc5)[nH]c(=O)c43)c2c(=O)[nH]1)c1ccccc1`, the GI50 with COLO 205, in the test on HCT-116, with HL-60, in the test on HOP-62, in the test with K562 and in the test on KM12 was > 100 µM (inactive) throughout. In addition, the GI50 in the test with LXFL 529, with OVCAR-4, with RXF 393, in the test with SF-539, in the test on SK-MEL-2 and in the test with SK-MEL-5 was > 100 µM (inactive) each time. Also, the GI50 in the test on SK-OV-3, in the test on SN12C, in the test with SNB-19, in the test on U-251 and in the test on UACC-257 was > 100 µM (inactive) each time.

With `CCCCOC(=O)NC(=O)c1cn(CCSCCOC(=O)NCCCCCCNC(=O)OCCSCCn2cc(C(=O)NC(=O)OCCCC)c(=O)[nH]c2=O)c(=O)[nH]c1=O`, the GI50 is > 100 µM (inactive) with COLO 205; 73.8 µM (inactive) in the test with HCT-116; > 100 µM (inactive) in the test on HL-60; 44.6 µM (inactive) in the test on HOP-62; > 100 µM (inactive) in the test with K562; > 100 µM (inactive) with KM12. Moreover, the GI50 in the test on LXFL 529 is 27 µM (inactive); with OVCAR-4, > 100 µM (inactive); in the test with RXF 393, 22.5 µM (inactive); with SF-539, > 100 µM (inactive); in the test on SK-MEL-2, 56.9 µM (inactive); in the test with SK-MEL-5 it was > 100 µM (inactive). Also, the GI50 with SK-OV-3 is 30.1 µM (inactive); with SN12C, > 100 µM (inactive); in the test with SNB-19 it was 26.6 µM (inactive); in the test on U-251 it was 23.4 µM (inactive); with UACC-257, > 100 µM (inactive).

In the case of `FC(F)(F)c1ccccc1C1SCc2nc3ccccc3n21` (stereo not given), the GI50 with COLO 205 was 59.8 µM (inactive); in the test on HCT-116, 39.1 µM (inactive); in the test on HL-60 it was 10.2 µM (inactive); in the test on K562 it was 16.2 µM (inactive); with KM12, 70.8 µM (inactive); with LXFL 529, 99.8 µM (inactive). The GI50 was 91.8 µM (inactive) with RXF 393; 85.7 µM (inactive) with SF-539; 99.3 µM (inactive) in the test with SK-MEL-2; > 10 µM (inactive) in the test on SK-MEL-5; 60.7 µM (inactive) with SK-OV-3; 31.6 µM (inactive) in the test on SN12C. The values for the GI50 in the test with SNB-19, in the test with U-251 and in the test on UACC-257 were > 100 µM (inactive), 88.5 µM (inactive) and 26.1 µM (inactive), respectively.

With `COc1cc2ccc(CC(=O)O)cc2cc1OC`, the GI50 in the test with COLO 205, in the test on HCT-116, in the test with HL-60, with HOP-62, in the test on K562 and with KM12 was > 100 µM (inactive) in each case. Further, the GI50 in the test with LXFL 529, in the test with OVCAR-4, with RXF 393, in the test on SK-MEL-2, with SK-MEL-5 and in the test with SK-OV-3 was > 100 µM (inactive) each time. For the same compound, the GI50 with SN12C, in the test with SNB-19, with U-251 and in the test with UACC-257 was > 100 µM (inactive) throughout.

On to `O=[N+]([O-])c1cccc(C2=NN(c3ccccc3)C3c4cc(Br)ccc4OCC23)c1` (stereo not given), for which the GI50 is > 100 µM (inactive) with COLO 205; 45.9 µM (inactive) with HCT-116; > 100 µM (inactive) in the test on HL-60; > 100 µM (inactive) in the test with HOP-62; > 100 µM (inactive) in the test with K562; 81.8 µM (inactive) in the test on KM12. Also, the GI50 with LXFL 529, in the test with RXF 393, with SF-539, in the test on SK-MEL-2, in the test with SK-MEL-5 and with SK-OV-3 was > 100 µM (inactive) each time. Besides, the GI50 in the test with SNB-19, in the test with U-251 and in the test on UACC-257 was > 100 µM (inactive) in each case.

Regarding `Cc1ccc(-c2c(N)nc(NC#N)nc2CCC(=O)Nc2ccccc2[N+](=O)[O-])cc1`, the GI50 with COLO 205, in the test with HCT-116, in the test with HL-60, with HOP-62, in the test with K562 and in the test with KM12 was > 100 µM (inactive) in each case. The GI50 in the test with LXFL 529, with OVCAR-4, with RXF 393, in the test with SF-539, in the test with SK-MEL-2 and in the test on SK-MEL-5 was > 100 µM (inactive) each time. The GI50 in the test on SK-OV-3, with SN12C, in the test on SNB-19, with U-251 and in the test on UACC-257 was > 100 µM (inactive) each time.

On to `CCN1C(=O)C/C(=C\C(C)=O)Nc2ccccc21`, for which the GI50 with COLO 205, with HCT-116, in the test on HOP-62, in the test on K562, in the test with KM12 and in the test with LXFL 529 was > 100 µM (inactive) in each case. The GI50 in the test with OVCAR-4 was > 100 µM (inactive); with RXF 393 it was > 100 µM (inactive); with SF-539 it was > 100 µM (inactive); in the test on SK-MEL-2 it was > 100 µM (inactive); with SK-MEL-5, 10 µM (inactive); in the test with SK-OV-3 it was > 100 µM (inactive). Further, the GI50 with SN12C is 0.166 µM (active); in the test on SNB-19, > 100 µM (inactive); in the test with U-251, > 100 µM (inactive).

As to `O=C(O)CN(c1ccccc1)S(=O)(=O)c1ccc(Cl)cc1`, the GI50 in the test on COLO 205, with HL-60, in the test with K562, in the test with LXFL 529, with OVCAR-4 and in the test on RXF 393 was > 100 µM (inactive) in each case. For the same compound, the GI50 in the test with SF-539, in the test on SK-MEL-2, in the test on SK-OV-3, in the test with SN12C, in the test with SNB-19 and with U-251 was > 100 µM (inactive) throughout. For the same compound, the GI50 in the test on UACC-257 was > 100 µM (inactive).

Regarding `C[C@@H]1O[C@@H](O[C@H]2[C@H](Oc3cc(O)c4c(=O)cc(-c5ccc(O)cc5)oc4c3)O[C@H](CO)[C@@H](O)[C@@H]2O)[C@H](O)[C@H](O)[C@H]1O` [RHOIFOLIN], the GI50 with COLO 205, in the test on HCT-116, in the test with HL-60, with HOP-62, in the test on K562 and with KM12 was > 100 µM (inactive) each time. Moreover, the GI50 in the test on LXFL 529, in the test with OVCAR-4, in the test on SF-539, in the test with SK-MEL-2, with SK-MEL-5 and in the test with SK-OV-3 was > 100 µM (inactive) each time. For the same compound, the GI50 in the test on SN12C, with SNB-19, with U-251 and in the test on UACC-257 was > 100 µM (inactive) each time.
